From ChEMBL document CHEMBL5390209, “Spinosyn A and Its Derivative Inhibit Colorectal Cancer Cell Growth via the EGFR Pathway” (J Nat Prod, 2023)
Activity calls are given as the source filed them. The rule behind the calls is not given here.

Key:
[1] = target: Epidermal growth factor receptor (Homo sapiens) (UniProt P00533); experiment: Inhibition of EGFR in human HT-29 cells assessed as reduction in Erk1/2 phosphorylation level at 0.5 to 2 uM incubated for 24 hrs by Western blotting analysis; assay type: cell-based; conditions: dose 0.5-2 µM
[2] = target: Epidermal growth factor receptor (Homo sapiens) (UniProt P00533); experiment: Inhibition of EGFR in human SW480 cells assessed as reduction in Erk1/2 phosphorylation level at 0.5 to 2 uM incubated for 24 hrs by Western blotting analysis; assay type: cell-based; conditions: dose 0.5-2 µM
HT-29 [3] = experiment: Antitumor activity against human HT-29 cells xenografted Balb/c mouse assessed as inhibited tumor growth at 2.5 mg/kg/day, ip administrated for every other day and measured after 6 days; assay type: functional, organism-based; conditions: time 6.0 day
HT-29 [4] = experiment: Inhibition of HER2 in human HT-29 cells xenografted in BALB/c nude mouse assessed as reduction in HER2 protein expression level at 2.5 mg/kg/day, ip administrated for every other day and measured after 28 days by immunohistochemistry staining based analysis; assay type: functional, organism-based; conditions: time 28.0 day
SW480 [5] = experiment: Inhibition of colony formation in human SW480 cells at 0.75 uM incubated for 14 days by crystal violet staining based colony formation assay; assay type: functional, cell-based; conditions: time 14.0 day
[6] = Toxicity in human HT-29 cells xenografted Balb/c mouse assessed as change in liver pathology at 5 mg/kg/day, ip administrated for every other day and measured after 28 days; assay type: organism-based; conditions: in vivo, 672 h, time 28 day
HT-29 [7] = experiment: Inhibition of colony formation in double EGFR/HER2 knockdown human HT-29 cells at 6 uM incubated for 14 days by crystal violet staining based colony formation assay; assay type: functional, cell-based; conditions: time 14.0 day
HT-29 [8] = experiment: Antitumor activity against human HT-29 cells xenografted Balb/c mouse assessed as inhibited tumor growth at 5 mg/kg/day, ip administrated for every other day and measured after 6 days; assay type: functional, organism-based; conditions: time 6.0 day
SW480 [9] = experiment: Inhibition of colony formation in double EGFR/HER2 knockdown human SW480 cells at 6 uM incubated for 14 days by crystal violet staining based colony formation assay; assay type: functional, cell-based; conditions: time 14.0 day
[10] = Toxicity in human HT-29 cells xenografted Balb/c mouse assessed as change in spleen pathology at 5 mg/kg/day, ip administrated for every other day and measured after 28 days; assay type: organism-based; conditions: in vivo, 672 h, time 28 day
HT-29 [11] = experiment: Inhibition of EGFR in human HT-29 cells xenografted in BALB/c nude mouse assessed as reduction in EGFR protein expression level in tumor at 5 mg/kg/day, ip administrated for every other day and measured after 28 days by immunohistochemistry staining based analysis; assay type: functional, organism-based; conditions: time 28.0 day
[12] = target: Epidermal growth factor receptor (Homo sapiens) (UniProt P00533); experiment: Inhibition of EGFR in human HT-29 cells assessed as reduction in ratio of p-EGFR/EGFR level at 15 uM measured after 3 to 15 hrs by Western blotting analysis; assay type: cell-based; conditions: time 3-15 hrs
HT-29 [13] = experiment: Inhibition of colony formation in HER2 knockdown human HT-29 cells at 6 uM incubated for 14 days by crystal violet staining based colony formation assay; assay type: functional, cell-based; conditions: time 14.0 day
[14] = target: Epidermal growth factor receptor (Homo sapiens) (UniProt P00533); experiment: Inhibition of EGFR in human HT-29 cells assessed as reduction in STAT3 phosphorylation level at 3.75 to 15 uM incubated for 24 hrs by Western blot analysis; assay type: cell-based; conditions: dose 3.75-15 µM
HT-29 [15] = experiment: Inhibition of EGFR in human HT-29 cells xenografted in BALB/c nude mouse assessed as EGFR protein level in tumor at 5 mg/kg/day, ip administrated for every other day and measured after 28 days by Western blotting analysis; assay type: functional, organism-based; conditions: time 28.0 day
SW480 [16] = experiment: Inhibition of colony formation in human SW480 cells at 6 uM incubated for 14 days by crystal violet staining based colony formation assay; assay type: functional, cell-based; conditions: time 14.0 day

Chain of Epidermal growth factor receptor (Homo sapiens) (P00533 whole entry): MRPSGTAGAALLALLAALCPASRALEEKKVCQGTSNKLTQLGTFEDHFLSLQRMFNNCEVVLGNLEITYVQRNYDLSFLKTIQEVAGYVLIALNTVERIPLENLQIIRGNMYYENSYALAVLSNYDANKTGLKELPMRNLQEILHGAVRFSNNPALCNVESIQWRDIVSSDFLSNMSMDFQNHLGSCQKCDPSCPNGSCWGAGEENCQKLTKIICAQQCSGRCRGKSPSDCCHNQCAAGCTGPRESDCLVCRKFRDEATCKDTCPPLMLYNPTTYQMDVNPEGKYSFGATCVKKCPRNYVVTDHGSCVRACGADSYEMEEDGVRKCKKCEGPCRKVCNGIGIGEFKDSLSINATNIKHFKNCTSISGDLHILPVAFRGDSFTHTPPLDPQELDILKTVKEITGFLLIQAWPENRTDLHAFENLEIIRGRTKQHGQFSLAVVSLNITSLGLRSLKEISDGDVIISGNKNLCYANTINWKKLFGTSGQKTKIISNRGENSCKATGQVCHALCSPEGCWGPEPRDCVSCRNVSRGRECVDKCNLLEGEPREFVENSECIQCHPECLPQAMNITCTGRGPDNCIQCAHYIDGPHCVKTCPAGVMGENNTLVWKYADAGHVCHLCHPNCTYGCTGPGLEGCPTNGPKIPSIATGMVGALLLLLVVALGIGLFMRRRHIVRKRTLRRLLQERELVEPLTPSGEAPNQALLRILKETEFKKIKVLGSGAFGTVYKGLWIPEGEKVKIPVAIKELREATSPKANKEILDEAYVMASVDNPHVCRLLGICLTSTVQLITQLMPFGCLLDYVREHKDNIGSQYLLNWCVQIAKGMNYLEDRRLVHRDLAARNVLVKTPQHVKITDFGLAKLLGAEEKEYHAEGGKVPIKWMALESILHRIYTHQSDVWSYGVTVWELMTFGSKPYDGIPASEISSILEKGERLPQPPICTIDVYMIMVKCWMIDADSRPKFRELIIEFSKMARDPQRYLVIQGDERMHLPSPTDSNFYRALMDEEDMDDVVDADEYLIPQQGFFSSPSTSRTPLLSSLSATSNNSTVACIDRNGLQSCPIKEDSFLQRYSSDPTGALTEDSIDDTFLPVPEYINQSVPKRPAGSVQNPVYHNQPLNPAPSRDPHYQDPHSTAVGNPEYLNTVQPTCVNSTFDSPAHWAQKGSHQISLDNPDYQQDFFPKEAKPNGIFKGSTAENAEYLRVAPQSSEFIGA

With `CC[C@H]1CCC[C@H](O[C@H]2CC[C@H](N(C)CC(O)CN3CCNCC3)[C@@H](C)O2)[C@@H](C)C(=O)C2=C[C@@H]3[C@@H](C=C[C@@H]4C[C@@H](O[C@@H]5O[C@@H](C)[C@H](OC)[C@@H](OC)[C@H]5OC)C[C@@H]34)[C@@H]2CC(=O)O1` (stereo partly specified) the inhibition [1] was “Active”, the inhibition [2] was “Active” and the inhibition (HT-29 [3]) was “Active”. For the same compound, the inhibition (HT-29 [4]) was “Active” and the inhibition (SW480 [5]) was “Active”.

With `CC[C@H]1CCC[C@H](O[C@H]2CC[C@H](N(C)C)[C@@H](C)O2)[C@@H](C)C(=O)C2=C[C@@H]3[C@@H](C=C[C@@H]4C[C@@H](O[C@@H]5O[C@@H](C)[C@H](OC)[C@@H](OC)[C@H]5OC)C[C@@H]34)[C@@H]2CC(=O)O1` [SPINOSYN A] the Activity [6] was “Non-Toxic”, the Activity (HT-29 [7]) was “inactive” and the inhibition (HT-29 [8]) was “Active”. The Activity (SW480 [9]) was “inactive”, the Activity [10] was “Non-Toxic” and the inhibition (HT-29 [11]) was “Active”. The inhibition [12] was “Active”, the Activity (HT-29 [13]) was “inactive” and the inhibition [14] was “Active”. For the same compound, the inhibition (HT-29 [15]) was “Active” and the inhibition (SW480 [16]) was “Active”.
